The source of these data is patent publication US8871679B2, “Fungicidal mixtures comprising substituted 1-methylpyrazol-4-ylcarboxanilides” (BASF SE, priority 2008, dated 2014).

Common to all, as to format: cell-based
For one test, the system named is Alternaria solani. Nature of the test: Microtiter test, activity against Alternaria solani (Use Example 4). The note with it: 7 days.
The next test has as its system Septoria tritici. Nature of the test: Microtiter test, activity against leaf blotch on wheat caused by Septoria tritici (Use Example 3). To be noted: for inhibition of growth at 16 ppm / inhibition of growth at 63 ppm / inhibition of growth at 4 ppm: Zymoseptoria tritici, 168 h, read-out: Observed efficacy.
In another test the test system is Pyricularia oryzae.
The subject of another test is Colletotrichum truncatum. Nature of the test: Microtiter test, activity against Colletotrichum truncatum (Use Example 5). The note with it: compound alone, 7 days.
The subject of another test is Leptosphaerium nodorum. Nature of the test: Microtiter test, activity against Leptospharium nodorum (Use Example 6). To be noted: compound alone, 7 days.
The next test has as its system Fusarium culmorum. Put plainly: Microtiter test, activity against Fusarium culmorum (Use Example 7). The note with it: compound alone, 7 days.
Setting [1] is: Alternaria solani, 168 h, 63 ppm, compound alone, read-out: Observed efficacy.
Where [2] appears, read: 0.016 ppm, compound alone, day 7.
The mark [3] stands for this setting: 0.25 ppm, compound alone, day 7.
[4] abbreviates: Alternaria solani, 168 h, read-out: Observed efficacy.

Read-outs that look alike come from different tables or passages of the source.

`Cc1c(COC(=O)[C@@H]2[C@H](/C=C(\Cl)C(F)(F)F)C2(C)C)cccc1-c1ccccc1` (racemic) [Bifenthrin, bifenthrin]: in the test with Alternaria solani (setting [1]), the inhibition of growth at 63 ppm worked out at 1%.
For the molecule `CC1(C)[C@H](C(=O)O[C@H](C#N)c2cccc(Oc3ccccc3)c2)[C@@H]1/C=C(\Cl)C(F)(F)F` (racemic) [lambda-Cyalothrin, lambda-cyhalothrin], the inhibition of growth at 16 ppm in the test with Septoria tritici (16 ppm, compound alone, day 7) was determined as 10%. Also, the inhibition of growth at 63 ppm in the test on Septoria tritici (63 ppm, compound alone, day 7) was 29%.
Consider `Cn1cc(C(=O)Nc2ccccc2C2CC2C2CC2)c(C(F)F)n1` (single isomer, unassigned) [Sedaxane (trans diastereoisomer), N-(trans-2-bicycloprop-2-ylphenyl)-3-difluoromethyl-1-methyl-1H-pyrazole-4-carboxamide], for which the Observed efficacy with Pyricularia oryzae (setting [2]) is reported as 1%; in the test on Septoria tritici (setting [3]) it was 57%; in the test with Alternaria solani (0.063 ppm, compound alone), 0%; in the test on Alternaria solani (0.25 ppm, compound alone), 20%; with Colletotrichum truncatum (0.25 ppm), 3%; with Leptosphaerium nodorum (0.25 ppm), 17%. Moreover, the Observed efficacy in the test on Fusarium culmorum (0.25 ppm) is recorded as 2%.
Take `COP(=O)(NC(C)=O)SC` (centres unmarked) [Acephate, acephate]: the inhibition of growth at 4 ppm with Septoria tritici came out at 2%. Moreover, the inhibition of growth at 1 ppm in the test on Alternaria solani (setting [4]) turned out to be 3%.
On to `CNC(=O)O/N=C/C(C)(C)SC` [Aldicarb, aldicarb], for which, in the test on Septoria tritici, the inhibition of growth at 16 ppm is 7%.
For `Cn1cc(C(=O)Nc2ccc(F)cc2-c2ccc(Cl)c(Cl)c2)c(C(F)F)n1` [Bixafen, bixafen], the Observed efficacy was determined as 6% in the test with Pyricularia oryzae (0.063 ppm, compound alone, day 7); 6% in the test on Pyricularia oryzae (setting [3]); 48% in the test with Septoria tritici; 0% in the test on Alternaria solani; 6% in the test with Colletotrichum truncatum (0.25 ppm); 16% in the test on Leptosphaerium nodorum (0.25 ppm).
For `CCOCn1c(-c2ccc(Cl)cc2)c(C#N)c(Br)c1C(F)(F)F` [Chlorfenapyr, chlorfenapyr], the Observed efficacy with Pyricularia oryzae (4 ppm, compound alone, day 7) was 17%; with Pyricularia oryzae (63 ppm, compound alone, day 7) it was 38%; with Leptosphaerium nodorum (63 ppm) it was 8%. Further, the inhibition of growth at 16 ppm in the test on Septoria tritici (16 ppm, compound alone, day 7) is 8%.
In turn, `CC1(C)[C@H](C(=O)O[C@H](C#N)c2cccc(Oc3ccccc3)c2)[C@@H]1C=C(Br)Br` [Deltamethrin, deltamethrin] came in with an Observed efficacy in the test on Pyricularia oryzae (4 ppm, compound alone, day 7) of 0%. Besides, in the test with Septoria tritici, the inhibition of growth at 16 ppm turned out to be 0% and the inhibition of growth at 63 ppm was 3%. Further, in the test on Alternaria solani (setting [4]), the inhibition of growth at 1 ppm was 0%, the inhibition of growth at 4 ppm was determined as 5% and the inhibition of growth at 16 ppm came out at 0%.
In the case of `CNC(=O)CSP(=S)(OC)OC` [Dimethoate, dimethoate], the inhibition of growth at 4 ppm in the test on Septoria tritici was found to be 2%.
On to `O=S1OCC2C(CO1)C1(Cl)C(Cl)=C(Cl)C2(Cl)C1(Cl)Cl` (centres unmarked) [Endosulfan, endosulfan], for which the Observed efficacy with Pyricularia oryzae (16 ppm, compound alone, day 7) was 22%; with Pyricularia oryzae (63 ppm, compound alone, day 7) it was 73%; with Colletotrichum truncatum (63 ppm), 8%; with Leptosphaerium nodorum (63 ppm) it was 5%. Further, the inhibition of growth at 16 ppm in the test with Septoria tritici worked out at 3%; with Alternaria solani (setting [4]), 13%. In the test on Septoria tritici, the inhibition of growth at 63 ppm was found to be 26%.
In the test on Pyricularia oryzae, `CC(C)([CH2][Sn]([CH2]C(C)(C)c1ccccc1)([CH2]C(C)(C)c1ccccc1)[O][Sn]([CH2]C(C)(C)c1ccccc1)([CH2]C(C)(C)c1ccccc1)[CH2]C(C)(C)c1ccccc1)c1ccccc1` [Fenbutadin-oxyd, fenbutatin oxide] registered an Observed efficacy of 39%.
With `Cc1cc(C(F)(C(F)(F)F)C(F)(F)F)ccc1NC(=O)c1cccc(I)c1C(=O)NC(C)(C)CS(C)(=O)=O` [Flubendiamid, flubendiamide], the Observed efficacy came to 0% with Pyricularia oryzae (4 ppm, compound alone, day 7); 15% in the test on Pyricularia oryzae (63 ppm, compound alone, day 7); 0% in the test on Colletotrichum truncatum (63 ppm); 22% with Leptosphaerium nodorum (63 ppm); 3% in the test with Fusarium culmorum (63 ppm). In addition, the inhibition of growth at 63 ppm was found to be 37% with Septoria tritici (63 ppm, compound alone, day 7) and 0% with Alternaria solani (setting [1]).
In turn, `CC1(C)CNC(=NN=C(/C=C/c2ccc(C(F)(F)F)cc2)/C=C/c2ccc(C(F)(F)F)cc2)NC1` [Hydramethylnon, hydramethylnon] yielded an Observed efficacy with Pyricularia oryzae (4 ppm, compound alone, day 7) of 5%. Also, in the test with Septoria tritici, the inhibition of growth at 16 ppm amounted to 0% and the inhibition of growth at 63 ppm was 4%. In the test with Alternaria solani (setting [4]), the inhibition of growth at 1 ppm turned out to be 7%.
For `Cn1cc(C(=O)Nc2ccccc2-c2cc(F)c(F)c(F)c2)c(C(F)F)n1` [Ia, N-(3′,4′,5′-trifluorobiphenyl-2-yl)-3-difluoro-methyl-1-methyl-1H-pyrazole-4-carboxamide], the Observed efficacy is recorded as 3% with Pyricularia oryzae (0.004 ppm, compound alone, day 7); 29% with Septoria tritici; 29% in the test with Alternaria solani.
On to `COC(=O)N(C(=O)N1CO[C@@]2(C(=O)OC)Cc3cc(Cl)ccc3C2=N1)c1ccc(OC(F)(F)F)cc1` [Indoxacarb, indoxacarb], for which the Observed efficacy turned out to be 0% in the test with Pyricularia oryzae (1 ppm, compound alone, day 7); 9% in the test with Septoria tritici (16 ppm, compound alone, day 7); 19% in the test with Septoria tritici (63 ppm, compound alone, day 7); 0% in the test with Alternaria solani (16 ppm, compound alone).
As to `CC(C)C1C2CCC1c1c(NC(=O)c3cn(C)nc3C(F)F)cccc12` (centres unmarked) [Isopyrazam, isopyrazam], the Observed efficacy in the test with Pyricularia oryzae (setting [2]) is 15%; with Septoria tritici, 58%; in the test with Alternaria solani, 2%; with Colletotrichum truncatum (0.25 ppm), 14%; in the test with Leptosphaerium nodorum (0.25 ppm) it was 13%.
Take `COP(N)(=O)SC` (centres unmarked) [Methamidophos, methamidophos]: the inhibition of growth at 4 ppm with Septoria tritici came out at 5%. In the test with Alternaria solani (setting [4]), the inhibition of growth at 1 ppm stood at 8% and the inhibition of growth at 63 ppm was 0%.
With `Cc1nn(C)c(F)c1C(=O)Nc1ccccc1C(C)CC(C)C` (centres unmarked) [Penflufen, N-[2-(1,3-dimethylbutyl)-phenyl]-1,3-dimethyl-5-fluor-1H-pyrazole-4-carboxamide], the Observed efficacy was 5% in the test with Pyricularia oryzae (setting [3]), 44% with Septoria tritici and 0% in the test on Alternaria solani.
As to `CCOP(=S)(OCC)SCSC(C)(C)C` [Terbufos, terbufos], in the test on Septoria tritici, the inhibition of growth at 16 ppm turned out to be 14%.
For `CC1(C)C(C=C(Cl)Cl)C1C(=O)OC(C#N)c1cccc(Oc2ccccc2)c1` (stereo not drawn) [alpha-Cypermethrin, alpha-cypermethrin], the Observed efficacy in the test on Pyricularia oryzae (63 ppm, compound alone, day 7) is recorded as 41%. In addition, in the test with Alternaria solani (setting [4]), the inhibition of growth at 63 ppm is 0%.
Consider abamectin, for which the Observed efficacy in the test with Alternaria solani (1 ppm, compound alone) was found to be 2%.
